“Also recorded” adds a separate entry of the source.
What was measured:
HeLa cells = experiment: Colony formation assay, HeLa cells; assay type: cell-based, human; details: FIG. 8A, 10 cm plates, 100 mM (printed) compound
Experimental: (§1) HeLa, A549, or SUM-159 cells were plated at a low density of 200-400 cells per well in the absence or presence of putative ERK docking domain inhibitors. Cell colonies were stained with crystal violet and counted after 6-10 days. In FIG. 8A cells were grown on 10 cm plates in the absence (−) or presence of […] of compound 67, 36, 68, 81, or 76. Colony formation dose response in the presence of the indicated concentrations of compound 76 (closed squares) or 81 (open squares) for Hela cells ([…]) (FIG. 8B), A549 cells (50 mM) (FIG. 8C), or SUM-159 cells (50 mM) (FIG. 8D).
(§2) Two methods were used to determine cell proliferation and survival based on colony formation. First, HeLa cells were grown to 70-80% confluence and then treated for 16 hours in the absence (DMSO only) or presence of active compounds. The next day cells were trypsinized, replated (1000-2000 cells per 10 cm culture dish) in regular media and allowed to grow for 8-14 days. Cells then were fixed for 10 minutes in 4% paraformaldehyde and stained with 0.2% crystal violet (in 20% methanol) for 1-2 minutes. Cells were washed several times with distilled water and colonies formed of at least 40 cells were counted. In the second method, growing cells were trypsinized and replated (500-1000 cells per 35 or 60 mm well, respectively) in the presence or absence of various concentrations of the test compounds. Following incubation for 8-14 days, cells were fixed, stained with crystal violet, and counted as described above.
The effects of the active compounds on cell proliferation and survival were tested using a colony formation assay.
(§3) Thus, several test compounds that show maximal inhibition of ERK substrates are also effective inhibitors of proliferation in cultured cancer cell lines.

[1] = system: ERK-mediated phosphorylation of Rsk-1 on Thr573; experiment: ERK-mediated Rsk-1 phosphorylation, immunoblot of EGF-stimulated HeLa cells; assay type: cell-based, human
[2] = system: SUM-159 estrogen-receptor negative breast cancer cell line; experiment: Colony formation assay, SUM-159 cells; assay type: cell-based, human; details: SUM-159, FIG. 8D
Experimental: as §1
as §2, with “In the second method, growing cells were trypsinized and replated (500-1000 cells per 35 or 60 mm well, respectively) in the presence or absence of various concentrations of the test compounds.” left out, “above. […]” for “above.”

[3] = system: dually phosphorylated ERK1/2 (ppERK1/2); experiment: ERK1/2 phosphorylation on activating sites (ppERK1/2), immunoblot of EGF-stimulated HeLa cells; assay type: cell-based, human
Experimental: (§4) In FIGS. 4A-4B HeLa cells were treated with EGF for 5 minutes with or without 100 mM of test compounds. […] The far left lane is the control (−) with no EGF. […] The control (C) is EGF only treatment. In FIG. 4B cells pretreated with increasing concentrations of compound 76 were stimulated with EGF. ELK-1 phosphorylation on Ser383 (pELK-1) was measured by immunoblotting. […] Protein lysates were separated by SDS-PAGE and immunoblotted simultaneously for phosphorylated ELK-1 (pELK-1, Ser383), dually phosphorylated ERK1/2 (ppERK1/2), and a-tubulin as a protein loading control. […] The control (C) is EGF only treatment.
(§5) The lysates then were diluted with an equal volume of 2× SDS-sample buffer and the proteins were separated on SDS-PAGE for immunoblot analysis. Immunoblot analysis was done as previously described (41-43).

ERK2 = target: T1, ERK2 (Mus musculus, UniProt P63085); experiment: ERK2 fluorescence titration (quenching of intrinsic fluorescence); assay type: binding; details: for quenching of ERK2 fluorescence (in words): wild type ERK2, excitation 295 nm
T1 construct: (His)6; made in house; host or cells: bacteria
Description: ERK2 was purified as described previously (46) with some modifications. Briefly, (His)6-tagged ERK2 was expressed in bacteria and the cells were harvested in BugBuster protein extraction reagent (EMD Biosciences, San Diego, Calif.). Clarified lysates were loaded onto a Talon Co^2+-IMAC affinity chromatography resin column (BD Biosciences, San Jose, Calif.) and the bound protein was eluted using increasing concentrations of imidazole. SDS-PAGE electrophoresis and Coomassie blue staining were used to identify the eluted fractions containing the ERK2 protein. The ERK2 protein concentration was determined using Bradford Reagent (Sigma).
Experiments will measure the changes in the intrinsic ERK2 fluorescence due to the presence of aromatic amino acids, with the indole group of tryptophan being the major fluorophore with absorption and emission maxima around 280 and 340 nanometers (nm), respectively. Fluorescence spectra were recorded with a Luminescence Spectrometer LS50 (Perkin Elmer, Boston, Mass.). For all experiments, ERK2 protein was diluted into 20 mM Tris-HCl, pH 7.5. Titrations were performed by increasing the test compound concentration while maintaining the ERK2 protein concentration at […]. […] The excitation wavelength was 295 nm and fluorescence was monitored from 300 to 500 nm. All reported fluorescence intensities are relative values and are not corrected for wavelength variations in detector response. Dissociation constants, KD, were determined using reciprocal plots, 1/v vs 1/[I], where v represents the percent occupied sites calculated assuming fluorescence quenching to be directly proportion to the percentage of occupied binding sites, [1] represents the concentration of the inhibitor compound and the slope of the curve equals the KD (48-49).
ERK2 contains three tryptophans, which have intrinsic fluorescence.

[4] = system: HT1080 fibrosarcoma cells; experiment: Cell proliferation, HT1080 cells; assay type: cell-based, human; details: HT1080, data not shown
Experimental: as §2, §3

[5] = system: ERK-specific phosphorylation of Elk-1 on Ser383; experiment: ERK-mediated Elk-1 phosphorylation, immunoblot of EGF-stimulated HeLa cells; assay type: cell-based, human
Experimental: as §4, with “FIGS.” for “FIGS. 4A-4B HeLa cells were treated with EGF for 5 minutes with or without 100 mM of test compounds.”
as §5
Compounds that were identified using the 3D structure of phosphorylated ERK2 also were tested.

colony formation = experiment: Colony formation assay of compounds 86-98 (cell line not given); assay type: cell-based; details: Table 3
Experimental: Cell colonies were stained with crystal violet and counted after 6-10 days.
Cells then were fixed for 10 minutes in 4% paraformaldehyde and stained with 0.2% crystal violet (in 20% methanol) for 1-2 minutes.

[6] = increasing doses of compound, EGF stimulation
[7] = 75 mM (printed) test compound 30 minutes, EGF 5 minutes

T1 sequence (P63085 whole entry): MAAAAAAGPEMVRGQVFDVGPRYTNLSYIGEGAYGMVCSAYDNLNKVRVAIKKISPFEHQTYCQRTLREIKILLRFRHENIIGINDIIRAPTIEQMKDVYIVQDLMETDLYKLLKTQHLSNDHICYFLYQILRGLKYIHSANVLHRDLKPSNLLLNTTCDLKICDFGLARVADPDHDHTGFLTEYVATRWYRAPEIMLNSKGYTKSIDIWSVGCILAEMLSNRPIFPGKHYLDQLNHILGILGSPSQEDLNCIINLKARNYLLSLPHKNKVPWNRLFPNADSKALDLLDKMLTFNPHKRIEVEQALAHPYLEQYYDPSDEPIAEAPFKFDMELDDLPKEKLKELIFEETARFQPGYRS

| y-intercept of reciprocal plot (indicating a single binding site) (ERK2; wild type ERK2) | IC50 (colony formation) [µM] | Compound | effect on colony formation / cell proliferation (in words) (HeLa cells) | effect on ERK-mediated Rsk-1 phosphorylation (in words) [1] | inhibition of cell proliferation (in words) [2] | effect on ERK1/2 phosphorylation on its activating sites [3, 6] | quenching of ERK2 fluorescence (in words) (ERK2) | inhibition of cell proliferation (in words) [4] | effect on ERK-mediated Elk-1 phosphorylation (Ser383) [5, 6] | effect on ERK1/2 phosphorylation (ppERK1/2) [3, 7] | effect on EGF-mediated ELK-1 phosphorylation (Ser383) [5, 7] |
| --- | --- | --- | --- | --- | --- | --- | --- | --- | --- | --- | --- |
|  |  | N=C(N)Nc1nc(C2COc3ccccc3O2)cs1 (stereo not drawn) [Compound 36] | subtle inhibition of colony formation; also recorded: little effect on colony formation | little effect on ERK substrate phosphorylation; also recorded: little effect on ERK-mediated Rsk-1 phosphorylation |  |  |  |  |  |  |  |
| 1.8 |  | CCOc1ccc(C=C2SC(=O)N(CCN)C2=O)cc1 [Compound 76] | completely inhibited cell proliferation | highest inhibition of Rsk-1 phosphorylation | inhibition of cell proliferation | largely unaffected | strong quenching of fluorescence | inhibition of cell proliferation | inhibited ERK-mediated Elk-1 phosphorylation |  |  |
|  |  | O=C(CCN1CCN(C/C=C/c2ccccc2)CC1)Nc1ccc(Cl)cc1 [Compound 81] | completely inhibited cell proliferation |  | inhibition of cell proliferation |  | quenching only occurs to a small extent at the higher concentrations | inhibition of cell proliferation |  |  |  |
|  | > 100 | COc1cc(C=C2NC(=O)NC2=O)ccc1OCc1ccc(Br)cc1 [Compound 95] |  |  |  |  | quenched ERK2 fluorescence; also recorded: more effective in quenching |  |  | little effect on ERK1/2 phosphorylation | showed evidence for inhibiting ERK-mediated ELK-1 phosphorylation; also recorded: inhibited EGF-mediated ELK-1 phosphorylation |
